Like-named read-outs stand apart in the source and are kept apart here.
Columns and labels:
esterase enzyme [1] = assay: Effect of solutions (solvents) on enzyme stability (24 hours incubation); format: biochemical, microflora of Ac1göl (Aci Lake); settings: for Effect of solutions on stability, Activity (%) 15% Solution: enzyme incubated 24 hours in buffer containing 15% solution; for Effect of solutions on stability, Activity (%) 30% Solution: enzyme incubated 24 hours in buffer containing 30% solution
Procedure: (§1) 6. […] The final concentration of the enzyme and substrate have been 1 μM and 1 mM respectively and absorbance measurements have been taken at 410 nm. The activity has been calculated by means of the below formula and one unit of activity has been defined as the enzyme amount which produces 1 μmol product in 1 minute.
(§2) Activity (U/L)=[(ΔAbs/t)/(ε*d)]*106*Vt/Vs • ΔAbs=Absorbance change; t=time (minute); ε=extinction coefficient (M−1 cm−1); d=light path (cm); Vt=total reaction volume; Vs=enzyme volume used in reaction.
(§3) Additionally, the effect of different solutions (hexane, chloroform, acetone, dimethyl formamide (DMF), dimethyl sulphoxide (DMSO), 2-propanol, butanol, 1-propanol, ethanol, methanol and glycerol) on the activity and stability of the enzyme have been measured. In the activity tests, 10% solution has been added into the reaction and in the stability tests the enzyme has been incubated for 24 hours in a buffer solution containing 15% and 30% solution.

esterase enzyme [2] = assay: Effect of solutions (solvents) on enzyme activity; format: biochemical, microflora of Ac1göl (Aci Lake); settings: 10% solution added into the reaction
Procedure: as §1, §2, §3

esterase enzyme [3] = assay: Effects of inhibitors and detergents on enzyme activity; format: biochemical, microflora of Ac1göl (Aci Lake)
esterase enzyme [4] = assay: Effect of metals on enzyme activity; format: biochemical, microflora of Ac1göl (Aci Lake); settings: for Metal tolerance, This study: the enzyme of the invention in presence of metal ion
[5] = test system: new true lipase isolated through metagenomic approach; settings: literature enzyme in presence of metal ion; cited from earlier work
[6] = test system: thermophilic and halophilic esterase from Janibacter sp. R02; settings: literature enzyme in presence of metal ion; cited from earlier work
[7] = test system: Salt-Tolerant Esterase from the Deep-Sea Sediment of the South China Sea; settings: literature enzyme in presence of metal ion; cited from earlier work
[8] = test system: heavy metal-resistant, thermophilic esterase from a Red Sea Brine Pool; settings: literature enzyme in presence of metal ion; cited from earlier work

1-propanol
Effect of solutions on stability, Activity (%) 15% Solution (esterase enzyme [1]): 85.7 ± 2.6% | Effect of solutions on stability, Activity (%) 30% Solution (esterase enzyme [1]): 23.3 ± 5.4% | Effect of solutions on activity, Activity (%) (esterase enzyme [2]): 2.6 ± 2.4%

O[C@H](CS)[C@H](O)CS (racemic) [DTT, dithiothreitol]
Activity (%) (1 mM inh.) (esterase enzyme [3]; 1 mM inh.): 36.7 ± 2.4% | Activity (%) (5 mM inh.) (esterase enzyme [3]; 5 mM inh.): 25.1 ± 0.8%

CC(C)O [2-Propanol, 2-propanol]
Effect of solutions on stability, Activity (%) 15% Solution (esterase enzyme [1]): 104.3 ± 1.2% | Effect of solutions on stability, Activity (%) 30% Solution (esterase enzyme [1]): 62.3 ± 4.3% | Effect of solutions on activity, Activity (%) (esterase enzyme [2]): 21.4 ± 1.6%

CC(C)=O [Acetone, acetone]
Effect of solutions on stability, Activity (%) 15% Solution (esterase enzyme [1]): 113.7 ± 2.5% | Effect of solutions on stability, Activity (%) 30% Solution (esterase enzyme [1]): 85.2 ± 5.6% | Effect of solutions on activity, Activity (%) (esterase enzyme [2]): 36 ± 4.9%

O=[N+]([O-])[O-].[Ag+] [AgNO3]
Activity (%) (1 mM metal) (esterase enzyme [4]; 1 mM metal): 31.6 ± 6.5% | Activity (%) (5 mM metal) (esterase enzyme [4]; 5 mM metal): 0.0%

[Ag+] [Ag^+]
Metal tolerance, Glogauer et al, 2011 [5]: 8 | Metal tolerance, This study (esterase enzyme [4]): 32

O=S(=O)([O-])[O-].O=S(=O)([O-])[O-].O=S(=O)([O-])[O-].[Al+3].[Al+3] [Al2SO4]
Activity (%) (1 mM metal) (esterase enzyme [4]; 1 mM metal): 91.2 ± 9.8% | Activity (%) (5 mM metal) (esterase enzyme [4]; 5 mM metal): 0.0%

[Al+3] [Al^3+]
Metal tolerance, Glogauer et al, 2011 [5]: 45 | Metal tolerance, This study (esterase enzyme [4]): 91

CCCCCCCCCCCCCCCC[N+](C)(C)C.[Br-] [CTAB, cetrimonium bromide]
Activity (%) (1 mM inh.) (esterase enzyme [3]; 1 mM inh.): 91 ± 6.6% | Activity (%) (5 mM inh.) (esterase enzyme [3]; 5 mM inh.): 1.3 ± 0.3%

[Ca+2].[Cl-].[Cl-] [CaCl2]
Activity (%) (1 mM metal) (esterase enzyme [4]; 1 mM metal): 130.2 ± 1.7% | Activity (%) (5 mM metal) (esterase enzyme [4]; 5 mM metal): 105.1 ± 1.4%

[Ca+2] [Ca^2+]
Metal tolerance, Glogauer et al, 2011 [5]: 73 | Metal tolerance, Castilla et al, 2017 [6]: 110 | Metal tolerance, This study (esterase enzyme [4]): 130 | Metal tolerance, Zhang et al, 2017 [7]: 95 | Metal tolerance, Mohamed et al, 2013 [8]: 95

ClC(Cl)Cl [Chloroform, chloroform]
Effect of solutions on stability, Activity (%) 15% Solution (esterase enzyme [1]): 97.9 ± 1.4% | Effect of solutions on stability, Activity (%) 30% Solution (esterase enzyme [1]): 100.2 ± 5.6% | Effect of solutions on activity, Activity (%) (esterase enzyme [2]): 5.1 ± 0.8%

[Cl-].[Cl-].[Co+2] [CoCl2]
Activity (%) (1 mM metal) (esterase enzyme [4]): 112.7 ± 3.4% | Activity (%) (5 mM metal) (esterase enzyme [4]): 3.6 ± 1.0%

[Co+2] [Co^2+]
Metal tolerance, Glogauer et al, 2011 [5]: 54 | Metal tolerance, Castilla et al, 2017 [6]: 50 | Metal tolerance, This study (esterase enzyme [4]): 113 | Metal tolerance, Zhang et al, 2017 [7]: 85 | Metal tolerance, Mohamed et al, 2013 [8]: 104

O=S(=O)([O-])[O-].[Cu+2] [CuSO4]
Activity (%) (1 mM metal) (esterase enzyme [4]; 1 mM metal): 117.5 ± 5% | Activity (%) (5 mM metal) (esterase enzyme [4]; 5 mM metal): 1.4 ± 1.1%

[Cu+2] [Cu^2+]
Metal tolerance, Castilla et al, 2017 [6]: 60 | Metal tolerance, This study (esterase enzyme [4]): 118 | Metal tolerance, Zhang et al, 2017 [7]: 82 | Metal tolerance, Mohamed et al, 2013 [8]: 95

CN(C)C=O [DMF, dimethyl formamide]
Effect of solutions on stability, Activity (%) 15% Solution (esterase enzyme [1]): 121.3 ± 1.6% | Effect of solutions on stability, Activity (%) 30% Solution (esterase enzyme [1]): 105.3 ± 1.6% | Effect of solutions on activity, Activity (%) (esterase enzyme [2]): 33.2 ± 7.0%

C[S+](C)[O-] [DMSO, dimethyl sulphoxide]
Effect of solutions on stability, Activity (%) 15% Solution (esterase enzyme [1]): 106.1 ± 0.9% | Effect of solutions on stability, Activity (%) 30% Solution (esterase enzyme [1]): 102.2 ± 4.8% | Effect of solutions on activity, Activity (%) (esterase enzyme [2]): 92%

O=C(O)CN(CCN(CC(=O)O)CC(=O)O)CC(=O)O [EDTA, ethylene diamine tetraacetic acid]
Activity (%) (1 mM inh.) (esterase enzyme [3]; 1 mM inh.): 89.6 ± 1.7% | Activity (%) (5 mM inh.) (esterase enzyme [3]; 5 mM inh.): 66.5 ± 1.2%

O=C(O)CN(CCOCCOCCN(CC(=O)O)CC(=O)O)CC(=O)O [EGTA, ethylene glycol tetraacetic acid]
Activity (%) (1 mM inh.) (esterase enzyme [3]): 100.2 ± 2.1% | Activity (%) (5 mM inh.) (esterase enzyme [3]): 87.6 ± 3.9%

CCO [Ethanol, ethanol]
Effect of solutions on stability, Activity (%) 15% Solution (esterase enzyme [1]): 105.9 ± 4.7% | Effect of solutions on stability, Activity (%) 30% Solution (esterase enzyme [1]): 98.2 ± 0.5% | Effect of solutions on activity, Activity (%) (esterase enzyme [2]): 45.1 ± 0.3%

Reference: patent US20210309978A1, “POLYNUCLEOTIDE SEQUENCE ENCODING A LOCAL SOURCED NOVEL ESTERASE” (ISTANBUL TEKNIK UNIVERSITESI, priority 2018, published 2021)
